# According to ChEMBL document CHEMBL4346757, “Synthesis and biological evaluation of 7-methoxy-1-(3,4,5-trimethoxyphenyl)-4,5-dihydro-2H-benzo[e]indazoles as new colchicine site inhibitors” (Bioorg Med Chem Lett, 2019):
# Key:
# Assay type in all cases: functional
# A549 = assay: Growth inhibition of human A549/ATCC cells assessed as cell growth at 0.01 uM after 48 hrs by SRB assay relative to control; conditions: A549, 48 h, read-out: Activity
# NCI-H23 [1] = assay: Growth inhibition of human NCI-H23 cells assessed as cell growth at 0.01 uM after 48 hrs by SRB assay relative to control; conditions: NCI-H23, 48 h, read-out: Activity
# COLO 205 = assay: Growth inhibition of human COLO205 cells assessed as cell growth at 0.01 uM after 48 hrs by SRB assay relative to control; conditions: COLO 205, 48 h, read-out: Activity
# UACC-257 [2] = assay: Growth inhibition of human UACC257 cells assessed as cell growth at 0.01 uM after 48 hrs by SRB assay relative to control; conditions: UACC-257, 48 h, read-out: Activity
# Hs-578T [3] = assay: Growth inhibition of human Hs 578T cells assessed as cell growth at 0.01 uM after 48 hrs by SRB assay relative to control; conditions: read-out: Activity
# NCI-H23 [4] = assay: Growth inhibition of human NCI-H23 cells assessed as cell growth at 0.1 uM after 48 hrs by SRB assay relative to control; conditions: NCI-H23, 48 h, read-out: Activity
# NCI-H522 [5] = assay: Growth inhibition of human NCI-H522 cells assessed as cell growth at 0.1 uM after 48 hrs by SRB assay relative to control; conditions: NCI-H522, 48 h, read-out: Activity
# M14 = assay: Growth inhibition of human M14 cells assessed as cell growth at 0.1 uM after 48 hrs by SRB assay relative to control; conditions: M14, 48 h, read-out: Activity
# A498 [6] = assay: Growth inhibition of human A498 cells assessed as cell growth at 0.1 uM after 48 hrs by SRB assay relative to control; conditions: A498, 48 h, read-out: Activity
# Hs-578T [7] = assay: Growth inhibition of human Hs 578T cells assessed as cell growth at 0.1 uM after 48 hrs by SRB assay relative to control; conditions: read-out: Activity
# EKVX = assay: Growth inhibition of human EKVX cells assessed as cell growth at 1 uM after 48 hrs by SRB assay relative to control; conditions: read-out: Activity
# KM12 [8] = assay: Growth inhibition of human KM12 cells assessed as cell growth at 1 uM after 48 hrs by SRB assay relative to control; conditions: KM12, 48 h, read-out: Activity
# SF-295 = assay: Growth inhibition of human SF295 cells assessed as cell growth at 1 uM after 48 hrs by SRB assay relative to control; conditions: SF-295, 48 h, read-out: Activity
# SF-539 [9] = assay: Growth inhibition of human SF539 cells assessed as cell growth at 1 uM after 48 hrs by SRB assay relative to control; conditions: SF-539, 48 h, read-out: Activity
# SK-MEL-2 = assay: Growth inhibition of human SK-MEL-2 cells assessed as cell growth at 1 uM after 48 hrs by SRB assay relative to control; conditions: SK-MEL-2, 48 h, read-out: Activity
# UACC-257 [10] = assay: Growth inhibition of human UACC257 cells assessed as cell growth at 1 uM after 48 hrs by SRB assay relative to control; conditions: UACC-257, 48 h, read-out: Activity
# SF-539 [11] = assay: Growth inhibition of human SF539 cells assessed as cell growth at 10 uM after 48 hrs by SRB assay relative to control; conditions: SF-539, 48 h, read-out: Activity
# SK-MEL-5 = assay: Growth inhibition of human SK-MEL-5 cells assessed as cell growth at 10 uM after 48 hrs by SRB assay relative to control; conditions: SK-MEL-5, 48 h, read-out: Activity
# OVCAR-4 = assay: Growth inhibition of human OVCAR4 cells assessed as cell growth at 10 uM after 48 hrs by SRB assay relative to control; conditions: OVCAR-4, 48 h, read-out: Activity
# RXF 393 = assay: Growth inhibition of human RXF393 cells assessed as cell growth at 10 uM after 48 hrs by SRB assay relative to control; conditions: RXF 393, 48 h, read-out: Activity
# T47D = assay: Growth inhibition of human T47D cells assessed as cell growth at 10 uM after 48 hrs by SRB assay relative to control; conditions: read-out: Activity
# K562 = assay: Growth inhibition of human K562 cells assessed as cell growth at 100 uM after 48 hrs by SRB assay relative to control; conditions: K562, 48 h, read-out: Activity
# NCI-H23 [12] = assay: Growth inhibition of human NCI-H23 cells assessed as cell growth at 100 uM after 48 hrs by SRB assay relative to control; conditions: NCI-H23, 48 h, read-out: Activity
# KM12 [13] = assay: Growth inhibition of human KM12 cells assessed as cell growth at 100 uM after 48 hrs by SRB assay relative to control; conditions: KM12, 48 h, read-out: Activity
# SK-MEL-28 = assay: Growth inhibition of human SK-MEL-28 cells assessed as cell growth at 100 uM after 48 hrs by SRB assay relative to control; conditions: SK-MEL-28, 48 h, read-out: Activity
# UACC-62 = assay: Growth inhibition of human UACC62 cells assessed as cell growth at 100 uM after 48 hrs by SRB assay relative to control; conditions: UACC-62, 48 h, read-out: Activity
# 786-0 = assay: Growth inhibition of human 786-0 cells assessed as cell growth at 100 uM after 48 hrs by SRB assay relative to control; conditions: 786-0, 48 h, read-out: Activity
# NCI-H522 [14] = assay: Cytotoxicity against human NCI-H522 cells assessed as growth inhibition after 48 hrs by SRB assay; conditions: NCI-H522, 48 h
# HT-29 = assay: Cytotoxicity against human HT-29 cells assessed as growth inhibition after 48 hrs by SRB assay; conditions: HT-29, 48 h
# OVCAR-3 = assay: Cytotoxicity against human OVCAR3 cells assessed as growth inhibition after 48 hrs by SRB assay; conditions: OVCAR-3, 48 h
# A498 [15] = assay: Cytotoxicity against human A498 cells assessed as growth inhibition after 48 hrs by SRB assay; conditions: A498, 48 h
# BT-549 = assay: Cytotoxicity against human BT549 cells assessed as growth inhibition after 48 hrs by SRB assay; conditions: BT-549, 48 h
# [16] = read-out: LC50 (the source's name)
# [17] = read-out: pLC50 (the source's name) (converted)
smiles,measurement,setting,value
COc1ccc2c(c1)CCc1n[nH]c(-c3cc(OC)c(OC)c(OC)c3)c1-2,growth at 0.01 µM,A549,14%
same,growth at 0.01 µM,NCI-H23 [1],14%
same,growth at 0.01 µM,COLO 205,-23%
same,growth at 0.01 µM,UACC-257 [2],47%
same,growth at 0.01 µM,Hs-578T [3],14%
same,growth at 0.1 µM,NCI-H23 [4],5%
same,growth at 0.1 µM,NCI-H522 [5],-18%
same,growth at 0.1 µM,M14,1%
same,growth at 0.1 µM,A498 [6],-15%
same,growth at 0.1 µM,Hs-578T [7],17%
same,growth at 1 µM,EKVX,52%
same,growth at 1 µM,KM12 [8],5%
same,growth at 1 µM,SF-295,5%
same,growth at 1 µM,SF-539 [9],-12%
same,growth at 1 µM,SK-MEL-2,42%
same,growth at 1 µM,UACC-257 [10],62%
same,growth at 10 µM,SF-539 [11],-24%
same,growth at 10 µM,SK-MEL-5,-21%
same,growth at 10 µM,OVCAR-4,35%
same,growth at 10 µM,RXF 393,-6%
same,growth at 10 µM,T47D,35%
same,growth at 100 µM,K562,7%
same,growth at 100 µM,NCI-H23 [12],-42%
same,growth at 100 µM,KM12 [13],-78%
same,growth at 100 µM,SK-MEL-28,-66%
same,growth at 100 µM,UACC-62,-76%
same,growth at 100 µM,786-0,-48%
same,GI50,NCI-H522 [14]; read-out: GI50,< 0.01 µM
same,CC50,NCI-H522 [14]; [16],46.9 µM
same,TGI,NCI-H522 [14]; read-out: TGI,< 0.01 µM
same,GI50,NCI-H522 [14]; read-out: pGI50 (converted),< 0.01 µM
same,CC50,NCI-H522 [14]; [17],46.8 µM
same,TGI,NCI-H522 [14]; read-out: pTGI,< 0.01 µM
same,GI50,HT-29; read-out: GI50,< 0.01 µM
same,CC50,HT-29; [16],49.9 µM
same,TGI,HT-29; read-out: TGI,10.1 µM
same,GI50,HT-29; read-out: pGI50 (converted),< 0.01 µM
same,CC50,HT-29; [17],50.1 µM
same,TGI,HT-29; read-out: pTGI (converted),10 µM
same,GI50,OVCAR-3; read-out: GI50,< 0.01 µM
same,LC50 (50% lethal concentration),OVCAR-3; read-out: LC50,75.5 µM
same,TGI,OVCAR-3; read-out: TGI,14.7 µM
same,GI50,OVCAR-3; read-out: pGI50 (converted),< 0.01 µM
same,LC50 (50% lethal concentration),OVCAR-3; read-out: pLC50 (converted),75.9 µM
same,TGI,OVCAR-3; read-out: pTGI (converted),14.8 µM
same,GI50,A498 [15]; read-out: GI50,< 0.01 µM
same,CC50,A498 [15]; [16],55.9 µM
same,TGI,A498 [15]; read-out: TGI,< 0.01 µM
same,GI50,A498 [15]; read-out: pGI50 (converted),< 0.01 µM
same,CC50,A498 [15]; [17],56.2 µM
same,TGI,A498 [15]; read-out: pTGI,< 0.01 µM
same,GI50,BT-549; read-out: GI50,< 0.01 µM
same,LC50 (50% lethal concentration),BT-549; read-out: LC50,> 100 µM
same,TGI,BT-549; read-out: TGI,10.6 µM
same,GI50,BT-549; read-out: pGI50 (converted),< 0.01 µM
same,LC50 (50% lethal concentration),BT-549; read-out: pLC50 (converted),> 100 µM
same,TGI,BT-549; read-out: pTGI (converted),10.7 µM
